Reference: US9730445B2, “Herbicidal compositions comprising 4-amino-3-chloro-5-fluoro-6-(4-chloro-2-fluoro-3-methoxyphenyl) pyridine-2-carboxylic acid or a derivative thereof and fungicides” (DOW AGROSCIENCES LLC, priority 2013, dated 2017)
“And” between values parts separate entries of the source, which are not always exact repeats. Identical values can stand only once.

Columns and labels:
DIGSA = assay: Postemergence foliar-applied weed control, direct-seeded rice (greenhouse); assay type: in vivo, Digitaria sanguinalis (L.) Scop. (large crabgrass)
CYPRO = assay: In-water applied weed control, transplanted paddy rice (greenhouse); assay type: in vivo, Cyperus rotundus L. (purple nutsedge); conditions: 19 DAA
Protocol: Weed seeds or nutlets of the desired test plant species were planted in puddled soil (mud) prepared by mixing a shredded, non-sterilized mineral soil (50.5 percent silt, 25.5 percent clay, and 24 percent sand, with a pH of about 7.6 and an organic matter content of about 2.9 percent) and water at a 1:1 volumetric ratio. The prepared mud was dispensed in 365 mL aliquots into 16-ounce (oz.) non-perforated plastic pots with a surface area of 86.59 square centimeters (cm^2) leaving a headspace of 3 centimeters (cm) in each pot. Rice seeds were planted in Sun Gro MetroMix® 306 planting mixture, which typically has a pH of 6.0 to 6.8 and an organic matter content of about 30 percent, in plastic plug trays. Seedlings at the second or third leaf stage of growth were transplanted into 860 mL of mud contained in 32-oz. non-perforated plastic pots with a surface area of 86.59 cm^2 4 days prior to herbicide application. The paddy was created by filling the headspace of the pots with 2.5 to 3 cm of water. When required to ensure good germination and healthy plants, a fungicide treatment and/or other chemical or physical treatment was applied. The plants were grown for 4-22 days in a greenhouse with an approximate 14 hour (h) photoperiod which was maintained at about 29° C. during the day and about 26° C. during the night. Nutrients were added as Osmocote® (17:6:10, N:P:K+minor nutrients) at 2 g per cup. Water was added on a regular basis to maintain the paddy flood, and supplemental lighting was provided with overhead metal halide 1000-Watt lamps as necessary. The plants were employed for testing when they reached the first through fourth true leaf stage.
Treatments consisted of the acid or esters of 4-amino-3-chloro-5-fluoro-6-(4-chloro-2-fluoro-3-methoxy-phenyl)pyridine-2-carboxylic acid (compound A) each formulated as an SC (suspension concentrate) and various fungicidal components alone and in combination. Forms of compound A were applied on an acid equivalent basis.
Treatment requirements for each compound or fungicidal component were calculated based upon the rates being tested, the concentration of active ingredient or acid equivalent in the formulation, an application volume of 2 mL per component per pot, and an application area of 86.59 cm^2 per pot.
For formulated compounds, a measured amount was placed in an individual 100 or 200 mL glass vial and was dissolved in a volume of 1.25% (v/v) Agri-Dex® crop oil concentrate to obtain application solutions.
For technical grade compounds, a weighed amount was placed in an individual 100 to 200 mL glass vial and dissolved in a volume of acetone to obtain concentrated stock solutions.
Applications were made by injecting with a pipetter appropriate amounts of the application solutions, individually and sequentially, into the aqueous layer of the paddy. Control plants were treated in the same manner with the solvent blank. Applications were made so that all treated plant material received the same concentrations of acetone and crop oil concentrate.
The treated plants and control plants were placed in a greenhouse as described above and water was added as needed to maintain a paddy flood. After approximately 3 weeks the condition of the test plants as compared with that of the untreated plants was determined visually and scored on a scale of 0 to 100 percent where 0 corresponds to no injury or growth inhibition and 100 corresponds to complete kill.
Colby's equation was used to determine the herbicidal effects expected from the mixtures (Colby, S. R. Calculation of the synergistic and antagonistic response of herbicide combinations. Weeds 1967, 15, 20-22.).
The following equation was used to calculate the expected activity of mixtures containing two active ingredients, A and B: Expected=A+B−(A×B/100)

COc1c(Cl)ccc(-c2nc(C(=O)OCc3ccccc3)c(Cl)c(N)c2F)c1F [Compound A Benzyl Ester]
Visual Weed Control (%)—20 DAA DIGSA Obs (DIGSA; 20 DAA, r21-23 ester 8/16/32 g ae/ha alone, r24-25 isotianil 100/200 g ai/ha alone, r26-31 ester 8/16/32 at each of 100, 200): 20% and 30% and 40% | Visual Weed Control (%)—21 DAA DIGSA Obs (DIGSA; 21 DAA, r38-39 ester 8/16 g ae/ha alone, r40 isotianil 380 g ai/ha alone, r41-42 ester 8/16 + 380): 15% and 25% | Visual Weed Control (%) - 22 DAA DIGSA Obs (DIGSA; 22 DAA, r22-24 ester 8/16/32 g ae/ha alone, r25-27 difenoconazole 50/100/200 g ai/ha alone, r28-36 ester 8/16/32 at each of 50, 100, 200): 15% and 23% and 28% | Visual Weed Control (%) - 19 DAA CYPRO Obs (CYPRO; Compound A Benzyl Ester 8 g ae/ha): 20% | Visual Weed Control (%) - 19 DAA CYPRO Obs (CYPRO; Compound A Benzyl Ester 16 g ae/ha): 88% | Visual Weed Control (%) - 19 DAA CYPRO Obs (CYPRO; Compound A Benzyl Ester 32 g ae/ha): 87%
